# Measured values published in US5843916A, “Cyclic amp analogues, individually and in pairs, to inhibit neoplastic cell growth” (priority 1994, dated 1998).
# Like-named read-outs stand apart in the source and are kept apart here.
# How the values were obtained:
# [1] = system: disseminated neuroblastomas; conditions: combined drug regimen; cited from earlier work
# [2] = system: breast (MCF-7) and colon (LS-174T) cancer cell lines; test: Growth inhibition of breast and colon cancer cells (Table 1); assay type: cell-based, human; conditions: Homo sapiens, 50 μM, average (range)
# Procedure: The compounds of the present invention were added using 100X concentrated stock solutions. At desired times, cell counts in duplicate were performed on a Coulter counter after harvesting the cells with gentle trypsinization. […] Cell counts were performed on each of three or more separate experiments, and the average values are expressed as percent growth inhibition as compared with untreated control cells. | ^a The values of percentage growth inhibition were determined from th | doseresponse curve experiments. Each value represents an average value an | range (in parentheses) obtained from three or more separate experiments. | The cell counts in duplicate were performed at day 3 and day 4 after two | treatments (day 0 and day 2) with analogs (seeding on day -1).
# [3] = system: MCF-7ras breast cancer cell line; test: Synergistic growth inhibition by analogue combinations (Table 2); assay type: cell-based, human; conditions: footnote of Table 2
# Procedure: All breast cancer cell lines were grown in IMEM supplemented with 10% fetal bovine serum, HEPES 20 mM, penicillin-streptomycin, and extra glutamine. Colon carcinoma cell lines were grown in EMEM supplemented with 10% FBS, EMEM, NEAA, HEPES 20 mM, extra glutamine, and penicillin-streptomycin. The cells were grown at 37° C. in humidified incubators in an atmosphere of 5% CO2.
# For cell growth experiments, 2-3×10^5 cells/60 mm dish were seeded, and 24 hours later (Day 0), the medium was removed, and fresh medium and the additives were added then and every 48 hours thereafter. The compounds of the present invention were added using 100X concentrated stock solutions. At desired times, cell counts in duplicate were performed on a Coulter counter after harvesting the cells with gentle trypsinization.
# Synergism quotient was defined as the net growth inhibitory effect of the analogue combination divided by the sum of the net analogue effects on growth inhibition. A quotient of >1 indicates a synergistic effect, while a quotient of <1 indicates an antagonistic effect.
# Synergism of growth inhibition was determined by
# treatment of cells with C-6 analogues and C-8 analogues alone
# and in combination at Day 0 and Day 2 and counting the cell
# ^a Data are expressed as percentage growth inhibition in reference to
# the growth of untreated control cells and represent average values and
# ranges (in parentheses) of duplicate cell counts on three or more separat
# experiments. The values for percentage growth inhibition of each analogue
# ^b The synergism quotient was defined as previously described.
# [4] = system: K-562; test: Growth inhibition of leukemic cells (Table 12); assay type: cell-based; conditions: Homo sapiens, K562
# [5] = system: Molt-4; test: Growth inhibition of leukemic cells (Table 12); assay type: cell-based, human; conditions: Homo sapiens, MOLT-4; read-out: Inhibition of Growth IC50, Molt-4
# [6] = system: four leukemic cell lines (HL-60, K-562, myc-K562, Molt-4); test: Growth inhibition of leukemic cell lines; assay type: cell-based, human; conditions: Homo sapiens; leukemic cell lines, range
# [7] = system: HL-60; test: Growth inhibition of leukemic cells (Table 12); assay type: cell-based; conditions: Homo sapiens
# [8] = system: myc-K562; test: Growth inhibition of leukemic cells (Table 12); assay type: cell-based; conditions: Homo sapiens
# [9] = system: YAC lymphoma cell; conditions: mouse, in vivo; cited from earlier work
# [10] = system: HL-60 human leukemia cells; test: Growth inhibition of HL-60 leukemia cells (Example 3, Table 16); assay type: cell-based; conditions: for IC50: Homo sapiens
# Procedure: HL-60 leukemic cells were obtained from the American Type Culture Collection (Rockville, Md.) and were grown in suspension culture in RPMI 1640 supplemented with 10% heat-inactivated fetal bovine serum, streptomycin (500 μg/ml), penicillin (50 units/ml), and glutamine (1 mM) (Gibco, Grand Island, N.Y.).
# Cell counts were performed at desired times on a Coulter Counter.
# The IC50 values were determined from the dose-
# represent an average value obtained for each analogue
# from two or more separate experiments carried out from 3
# days or 6 days. Initial cell number, 1 × 10^5 /dish.
# Typical numbers of untreated control cells at day 3 and
# viability in treated and control cells.
# [11] = system: HL-60 leukemia cells; test: Surface antigen expression of HL-60 cells (Example 5); assay type: cell-based, human; conditions: 100 μM
# Procedure: (§1) Briefly, cells were fixed in 70% ethanol and stored at 4° C. before analysis. Nuclear DNA was stained with propidium iodide, 50 μg/ml in phosphate-buffered saline (pH 7.4), for 30 minutes at room temperature. RNase was added to avoid double-helix RNA staining. The DNA content of cells was analyzed by a FACScan flow cytometer coupled with a Hewlett-Packard computer. Cell cycle data analysis was performed by a Cell-FIT program according to the method of Dean (Cell Tissue Kinet. 13: 299-308 (1980)) (Becton Dickinson Immunocytometry Systems). Pulse area versus pulse width gating was performed to exclude doublets from the G2 -M region. For each sample, 20,000 events were stored in list mode. Cell surface antigen analysis was performed by flow cytometry with FACScan using a panel of monoclonal antibodies reactive with either monocytic or myeloid cells.
# The effect of Rp- and Sp-8-Cl-cAMPS on the expression of differentiation markers in HL-60 cells was examined to determine if the growth-arrested HL-60 cells are more differentiated than untreated cells. […] For each sample, 2×10^4 cells were analyzed. Cell surface antigen analysis was performed by flow cytometry with FACScan. Cell gating was performed using forward and side scatter.
# [12] = target: T1, RII, regulatory subunit of cAMP-dependent protein kinase type II (Bos taurus, UniProt P00515); test: Binding affinity for RII (Table 14)
# T1 construct: from tissue
# Procedure: (§2) RI and RII are the regulatory subunits of cAMP-dependent protein
# (§3) kinase type I and type II, respectively. Site A (Site 2) and Site B
# (§4) (RI and RII): the affinities of analogues for Site A and Site B were
# (§5) determined by the measurement of kinetic constants (inhibition constant,
# (§6) Ki), and the values are expressed as the relative affinity Ki
# (§7) (analogue), i.e., the ratio between the apparent inhibition constant for
# (§8) cAMP and the analogue, as described in Ogreid et al., Eur. J. Biochem.
# [13] = target: T2, Protein kinase type I (cAKI) (Oryctolagus cuniculus, UniProt G1TDN4); test: Protein kinase activation (Table 15); assay type: biochemical, rabbit (skeletal muscle)
# T2 construct: prepared from rabbit skeletal muscle and bovine heart; from tissue; host or cells: rabbit skeletal muscle
# Procedure: (§9) ATP to Kemptide as described by Ogreid et al., Eur. J. Biochem. 150: 219-227 (1985).
# (§10) Protein kinases types I (cAKI) and II (cAKII) were
# (§11) prepared from rabbit skeletal muscle and bovine heart,
# (§12) respectively, as described in D.o slashed.skeland et al. (J. Biol.
# (§13) of the protein kinase in Ogreid et al. (Eur. J. Biochem.
# [14] = system: LS-174T human colon carcinoma cells; test: Growth inhibition of LS-174T cells (Example 4, Table 18); assay type: cell-based
# Procedure: LS-174T human colon carcinoma cells were obtained from the National Cancer Institute, Division of Cancer Treatment, Bethesda, Md., and were grown in Eagle's minimum essential medium supplemented with 10% heat-inactivated fetal bovine serum, Eagle's minimum essential medium nonessential amino acids, 20 mM 4-(2-hydroxyethyl)-1-piperazineethanesulfonic acid, 2mM glutamine, and penicillin-streptomycin (Gibco). The medium was changed every 48 hours.
# LS-174T cells were seeded at a density of 2×10^5 / 60 mm dish. […] At desired times, cell counts were performed in duplicate on a Coulter Counter after harvesting cells with gentle trypsinization.
# The percentage growth inhibition values shown at 10
# and 50 μM analogue concentrations were determined from
# the dose-response curve experiments like those shown in
# FIG. 1 and represent an average value obtained for each
# analogue from two or more separate experiments. Sp-6-SET-
# [15] = system: HL-60 Cells; test: Cell cycle kinetics of HL-60 cells (Table 17); assay type: cell-based, human; conditions: for % G2 M / % G0-G1 / % S: 96 hours; for % G2 M: control 8.3; for % G0-G1: control 45.7; for % S: control 46
# Procedure: as §1
# [16] = target: T3, RI, regulatory subunit of cAMP-dependent protein kinase type I (Oryctolagus cuniculus, UniProt G1TDN4); test: Binding affinity for RI (Table 14)
# T3 construct: from tissue
# Procedure: as §2, §3, §4, §5, §6, §7, §8
# [17] = target: T4, Protein kinase type II (cAKII) (Bos taurus, UniProt P00515); test: Protein kinase activation (Table 15); assay type: biochemical, bovine (heart)
# T4 construct: prepared from rabbit skeletal muscle and bovine heart; from tissue; host or cells: bovine heart
# Procedure: as §9, §10, §11, §12, §13
# [18] = half-maximum activation, U. M.: unmeasurable
# T1 sequence (P00515 whole entry): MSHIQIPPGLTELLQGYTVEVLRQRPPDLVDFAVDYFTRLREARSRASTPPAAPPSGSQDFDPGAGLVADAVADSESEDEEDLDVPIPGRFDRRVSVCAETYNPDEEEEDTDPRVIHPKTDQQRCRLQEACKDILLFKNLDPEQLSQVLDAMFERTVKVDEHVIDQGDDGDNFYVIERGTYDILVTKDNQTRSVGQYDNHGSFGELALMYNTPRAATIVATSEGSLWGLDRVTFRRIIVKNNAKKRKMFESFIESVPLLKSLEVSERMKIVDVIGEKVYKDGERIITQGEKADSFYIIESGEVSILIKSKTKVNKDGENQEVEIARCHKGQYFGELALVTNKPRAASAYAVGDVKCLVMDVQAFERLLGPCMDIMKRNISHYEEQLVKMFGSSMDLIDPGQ
# T3 sequence (G1TDN4 1-381): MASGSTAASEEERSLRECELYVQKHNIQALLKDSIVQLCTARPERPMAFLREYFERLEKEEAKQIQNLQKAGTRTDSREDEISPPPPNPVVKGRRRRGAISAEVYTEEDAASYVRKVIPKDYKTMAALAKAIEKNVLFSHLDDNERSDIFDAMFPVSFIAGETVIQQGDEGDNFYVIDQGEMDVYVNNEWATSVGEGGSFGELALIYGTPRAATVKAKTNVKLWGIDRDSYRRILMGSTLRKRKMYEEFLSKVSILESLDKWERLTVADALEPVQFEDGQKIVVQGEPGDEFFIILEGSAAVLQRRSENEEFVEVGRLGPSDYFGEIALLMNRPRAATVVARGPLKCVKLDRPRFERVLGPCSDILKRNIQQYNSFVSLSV
# T2 sequence (G1TDN4 1-381): as above
# T4 sequence (P00515 2-401 limits assumed): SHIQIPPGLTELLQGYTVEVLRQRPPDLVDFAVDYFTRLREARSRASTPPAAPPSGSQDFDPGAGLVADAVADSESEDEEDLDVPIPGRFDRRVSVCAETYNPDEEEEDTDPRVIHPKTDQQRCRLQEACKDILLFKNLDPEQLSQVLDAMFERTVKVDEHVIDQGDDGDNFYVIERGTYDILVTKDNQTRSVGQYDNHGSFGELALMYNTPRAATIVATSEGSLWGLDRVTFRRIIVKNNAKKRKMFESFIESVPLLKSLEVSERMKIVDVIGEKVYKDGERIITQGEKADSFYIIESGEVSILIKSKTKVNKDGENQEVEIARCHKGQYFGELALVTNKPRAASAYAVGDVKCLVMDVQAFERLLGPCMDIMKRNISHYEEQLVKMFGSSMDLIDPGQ
molecule,measurement,setting,value
COc1ccc(Cc2nccc3cc(OC)c(OC)cc23)cc1OC [papaverine],clinical result,[1],promising results
O=C(Nc1ncnc2c1ncn2[C@@H]1O[C@@H]2COP(=O)(O)O[C@H]2[C@H]1O)c1ccccc1 [N^6 -benzoyl-cAMP],inhibition at 50 µM,"[2]; 72 h, day 3, read-out: % Growth Inhibition, Day 3",30%
same,inhibition at 50 µM,"[2]; 96 h, day 4, read-out: % Growth Inhibition, Day 4",28%
same,percentage growth inhibition of each analogue when added alone,[3],10%
same,IC50,[4],45 µM
same,IC50,[5],40 µM
same,IC50,[6],40 to 50 µM
same,IC50,[7],50 µM
same,IC50,[8],50 µM
cholera toxin,inhibition of YAC lymphoma cell proliferation,[9],almost complete inhibition of YAC lymphoma cell proliferation for up to four days
"Nc1ncnc2c1nc(Cl)n2[C@@H]1O[C@@H]2CO[P@](O)(=S)O[C@H]2[C@H]1O [Sp-8-Cl-cAMPS, Sp-(axial exocyclic sulfursubstitution) 8-chloro-adenosine 3': 5'-monophosphorothioate]",IC50,"[10]; HL-60, 72 h, read-out: Growth inhibition (IC50), Day 3",100 µM
same,IC50,"[10]; HL-60, 144 h, read-out: Growth inhibition (IC50), Day 6",8 µM
same,fold less potent than 8-Cl-cAMP,"[10]; growth inhibition HL-60, day 6",20 fold
same,surface antigen expression,[11],no appreciable effect on the surface antigen expression
same,"relative affinity Ki (cAMP)/Ki (analogue), RII Site A",[12]; Site A (Site 2),0.0023
same,"relative affinity Ki (cAMP)/Ki (analogue), RII Site B",[12]; Site B (Site 1),2.4
same,decrease in affinity for Site A of RII vs corresponding cyclophosphate,[12]; vs cyclophosphate,22 fold
same,decrease in affinity for Site B of RII vs corresponding cyclophosphate,[12]; vs cyclophosphate,1.9 fold
same,"Activation Constant (Ka), cAKI",[13]; [18],2.5 × 10^-7
same,increase in the Ka for protein kinase type I vs 8-Cl-cAMP,[13]; vs 8-Cl-cAMP,11 fold
same,inhibition at 10 µM,"[14]; Homo sapiens, LS174T",20%
same,inhibition at 50 µM,"[14]; Homo sapiens, LS174T",40%
same,growth inhibitory potency,[14]; LS-174T,moderate potency
same,% G2 M,[15]; 10 μM,8.9%
same,% G0-G1,[15]; 10 μM,46.8%
same,% S,[15]; 10 μM,44.3%
same,% G2 M,[15]; 50 μM,8.6%
same,% G0-G1,[15]; 50 μM,46%
same,% S,[15]; 50 μM,45.4%
same,% G2 M,[15]; 100 μM,9.0%
same,% G0-G1,[15]; 100 μM,56%
same,% S,[15]; 100 μM,35%
same,cell cycle phase distribution,"[15]; HL-60, 96 hours in Table 17",not appreciably different
same,"relative affinity Ki (cAMP)/Ki (analogue), RI Site A",[16]; Site A (Site 2),0.18
same,"relative affinity Ki (cAMP)/Ki (analogue), RI Site B",[16]; Site B (Site 1),0.037
same,decrease in affinity for Site A of RI vs corresponding cyclophosphate,[16]; vs cyclophosphate,15 fold
same,decrease in affinity for Site B of RI vs corresponding cyclophosphate,[16]; vs cyclophosphate,54 fold
same,"Activation Constant (Ka), cAKII",[17]; [18],2.5 × 10^-7
same,increase in the Ka for protein kinase type II vs 8-Cl-cAMP,[17]; vs 8-Cl-cAMP,2.5 fold
